Experimental data as given in US11814681B2 (priority 2017, dated 2023).
Several values for one entry are separate records, joined by “and”; a condition that tells them apart may be missing. Equal entries are not always repeated.

Key:
[1] = in vivo; cited from earlier work
[2] = human, in vivo
schizophrenia patients = details: human, in vivo
[3] = human, in vivo; remark: listed apart in the source
[4] = human, in vivo; remark: listed apart in the source
[5] = system: patients (Met allele carriers, Val/Val); design: species or system human; details: in vivo
[6] = system: patients (Met allele carriers, Val/Val); details: in vivo; cited from earlier work

Compound	effect on circulating proline levels [1]	fasting plasma proline, mean ± SD [2]	difference in SANS total score, Val/Val versus Val/Met and Met/Met (regression coefficient) (schizophrenia patients)	β (95% CI), bivariate association of treatment with total SANS score (schizophrenia patients)	fasting plasma proline versus patients who did not receive the drug [3]	fasting L-serine level [4]	fasting glycine level [4]	patients showing improvement in negative symptoms after treatment onset [5]	effect on circulating proline [1]	blood level considered the lower end of the therapeutic range [6]
CCO [Ethanol]	increases	–	–	–	–	–	–	–	–	–
CCCC(CCC)C(=O)O [VPA, 2-propylpentanoic acid]	–	299.29±94.76	−12.17	−0.578 (−7.157, 6.001)	significantly higher	117 µM	361 µM	2 out of 9 and 5 out of 7	upregulates	50 µg/mL
